Measured values published in patent US20100203647A1, “Chemical Reporters of Protein Acylation” (THE ROCKEFELLER UNIVERSITY, priority 2008, published 2010).
“Also recorded” adds a separate entry of the source. Each block holds one compound with its values, some of them ahead of it.

Tests used:
Lck = experiment: Pulse-chase tandem imaging of palmitate turnover on Lck in Jurkat T cells; format: cell-based, human; conditions: for effect of chemical inhibitor on palmitate turnover on Lck: added during the chase, 20 μM MAFP, 100 μM 2BP; for decay of reporter signal on Lck with excess myristate as the chase additive: over 6 hours
Jurkat cells [1] = experiment: Metabolic labeling with inhibitors; conditions: for class of acylated proteins targeted by the reporter: from CHX and NH2OH sensitivity in Jurkat cell lysates
p300 = target: T1, p300 (Homo sapiens, UniProt Q09472); experiment: MALDI-TOF analysis of p300-catalyzed acylation of histone H3 peptide in vitro; format: biochemical; conditions: 20 μM analog, MS analysis
T1 construct: made in house; host or cells: SF9 insect cells, baculovirus
Experimental: Cells were lysed in lysis buffer (20 mM Tris, pH 7.5, 500 mM NaCl, 4 mM MgCl2, 0.4 mM EDTA, 20% glycerol, 2 mM DTT, and supplemented with protease inhibitors). Clarified cell lysates were diluted to 300 mM NaCl, and NP-40 was added to 0.1% final concentration. Flag M2 agarose resin (Sigma) was added to the lysate and incubated for 4 hours at 4° C. […] Protein concentration and purity were estimated by comparison to BSA standards on SDS gels stained with Gelcode Blue stain (Pierce).

Jurkat T cells [2] = experiment: Metabolic labeling of Jurkat T cells with alkynyl-acetate analogs, CuAAC with az-Rho, in-gel fluorescence scanning; conditions: metabolically-labeled Jurkat T cells
Jurkat T cells [3] = experiment: Proteomic analysis and modification site mapping of alkynyl-acetate analog-labeled proteins; format: cell-based, human; conditions: for qualitative comparison among alkynyl-acetate analogs as chemical reporter for protein acetylation: proteomics data and in vitro p300-acylation studies
[4] = tested on: acetylated proteins such as histones; experiment: Metabolic labeling of acetylated proteins with very short chain alkynyl-chemical reporters, in-gel fluorescence; format: cell-based, human
M. smegmatis = experiment: Labeling of acylated proteins in bacterial cells with alkynyl-chemical reporters; format: cell-based
[5] = In vivo labeling of acylated proteins after intraperitoneal injection of alkynyl-chemical reporters; conditions: mice, one hour, splenocytes, liver
Experimental: (§1) Livers were harvested and incubated with Liberase 3 Blendzyme™ (Roche, Mannheim, Germany) at 37° C. for 30 minutes+ and homogenized prior to filtration with 0.4 μm cell strainers. Splenocytes were prepared by manual disruption of spleens using forceps. Liver and splenocyte preparations were subjected to red blood cell lysis using ACK lysis buffer.
as §1, with “Livers and kidney” for “Livers”, “Blendzyme” for “Blendzyme™”, “minutes” for “minutes+”, “Liver, kidney” for “Liver”

Fyn [6] = target: T2, Fyn (Homo sapiens, UniProt P06241, G2A); experiment: Alkynyl-fatty acid labeling of wild type, G2A and C3,6S Fyn overexpressed in HeLa cells, immunoprecipitation; format: cell-based; conditions: 20 μM reporter
T2 construct: expressed in transfected cells; host or cells: HeLa cells
Experimental: (§2) HeLa cells were grown in 10 cm dishes to approximately 90% confluence in DMEM, supplemented with 10% FBS, and transfected with wildtype, G2A or C3,6S Fyn constructs using Lipofectamine 2000 (Invitrogen). The human Fyn constructs, wild type and mutant Fyn cDNAs cloned into eukaryotic expression vector pCMV5, were gifts from Dr. Marilyn Resh, Memorial Sloan-Kettering Cancer Center. The following day, cells were metabolically labeled with alkynyl-fatty acid analogs as described above.
(§3) Cell lysates were collected after centrifuging at 1,000 g for 5 minutes at 4° C. to remove cell debris. Protein concentration was determined by the BCA assay. Typical lysate protein concentration obtained: 6-8 mg/mL. LAT, Lck and Ras proteins were immunoprecipitated from 200 μg Jurkat cell lysate using the following antibodies at recommended concentrations: mouse anti-Lck (p56lck) monoclonal (Clone 3A5, Thermo Scientific, Waltham, Mass., USA), rat anti-v-H-ras (Ab-1) monoclonal (Y13-259 agarose conjugate, Calbiochem, San Diego, Calif., USA), and rabbit anti-LAT polyclonal (Millipore, Billerica, Mass., USA). A rabbit anti-Fyn polyclonal (Millipore, Billerica, Mass., USA) was used to immunoprecipitate wild type and mutant Fyn proteins from transfected and metabolically labeled HeLa cells. 25 μL of packed protein A-agarose beads (Roche, Mannheim, Germany) was used per sample.

Fyn [7] = target: T3, Fyn (Homo sapiens, UniProt P06241); experiment: as above; format: cell-based; conditions: 20 μM reporter
T3 construct: expressed in transfected cells; host or cells: HeLa cells
Experimental: as §2, §3

Fyn [8] = target: T4, Fyn (Homo sapiens, UniProt P06241, C3S/C6S); experiment: as above; format: cell-based; conditions: 20 μM reporter
T4 construct: expressed in transfected cells; host or cells: HeLa cells
Experimental: as §2, §3

Lck and LAT = experiment: Hydroxylamine cleavage of S-acylated proteins (in-gel), immunoprecipitated Lck and LAT; format: cell-based, human; conditions: 1 M NH2OH pH 7.4; alk-16 on Lck and LAT, alk-12 on Lck
Experimental: as §3
The gel was finally washed with deionized water (2×5 minutes) and scanned for the post-hydroxylamine treatment fluorescence.

[9] = Absorbance and fluorescence studies of clickable CyFur dyes; format: physicochemical; conditions: for εmax^b (M^−1cm^−1): in MeOH, at 470 nm for az-CyFur-1, az-CyFur-2 and at 580 nm for alk-CyFur, averaged over three independent experiments; for ΦF^c: quantum yield referenced against cresyl violet, alk-CyFur excited at 580 nm, az-CyFur-1 and az-CyFur-2 at 470 nm; for λmax^a (nm) (first column) / λmax^a (nm) (second column): spectra obtained in DMSO
Experimental: Absorbance and fluorescence studies. Absorption spectra and fluorescence data were collected on SpectraMax M2 multi-detection reader (Molecular Devices). The spectra in solution were obtained at 25° C. using a quartz cuvette with a path length of 1 cm. Fluorescence quantum yields (ΦF) of CyFur dyes were determined against cresyl violet (ΦF=0.54 in methanol).

Jurkat T cell lysates = experiment: Streptavidin affinity enrichment and Na2S2O4 elution of azido-chemical reporter labeled Jurkat T cell lysates reacted with alk-diazo-biotin; format: cell-based, human; conditions: Coomassie staining of polypeptides eluted from streptavidin beads
[10] = tested on: metabolic incorporation of chemical reporters; experiment: Effect of inhibitors/additives on metabolic incorporation of alkynyl-chemical reporters; format: cell-based
Jurkat cells [11] = experiment: Competition of metabolic labeling with naturally occurring fatty acids; conditions: 2 hours, myristic acid 0, 10 or 100 μM, palmitic acid 0, 100 or 200 μM

T1 sequence (Q09472 whole entry): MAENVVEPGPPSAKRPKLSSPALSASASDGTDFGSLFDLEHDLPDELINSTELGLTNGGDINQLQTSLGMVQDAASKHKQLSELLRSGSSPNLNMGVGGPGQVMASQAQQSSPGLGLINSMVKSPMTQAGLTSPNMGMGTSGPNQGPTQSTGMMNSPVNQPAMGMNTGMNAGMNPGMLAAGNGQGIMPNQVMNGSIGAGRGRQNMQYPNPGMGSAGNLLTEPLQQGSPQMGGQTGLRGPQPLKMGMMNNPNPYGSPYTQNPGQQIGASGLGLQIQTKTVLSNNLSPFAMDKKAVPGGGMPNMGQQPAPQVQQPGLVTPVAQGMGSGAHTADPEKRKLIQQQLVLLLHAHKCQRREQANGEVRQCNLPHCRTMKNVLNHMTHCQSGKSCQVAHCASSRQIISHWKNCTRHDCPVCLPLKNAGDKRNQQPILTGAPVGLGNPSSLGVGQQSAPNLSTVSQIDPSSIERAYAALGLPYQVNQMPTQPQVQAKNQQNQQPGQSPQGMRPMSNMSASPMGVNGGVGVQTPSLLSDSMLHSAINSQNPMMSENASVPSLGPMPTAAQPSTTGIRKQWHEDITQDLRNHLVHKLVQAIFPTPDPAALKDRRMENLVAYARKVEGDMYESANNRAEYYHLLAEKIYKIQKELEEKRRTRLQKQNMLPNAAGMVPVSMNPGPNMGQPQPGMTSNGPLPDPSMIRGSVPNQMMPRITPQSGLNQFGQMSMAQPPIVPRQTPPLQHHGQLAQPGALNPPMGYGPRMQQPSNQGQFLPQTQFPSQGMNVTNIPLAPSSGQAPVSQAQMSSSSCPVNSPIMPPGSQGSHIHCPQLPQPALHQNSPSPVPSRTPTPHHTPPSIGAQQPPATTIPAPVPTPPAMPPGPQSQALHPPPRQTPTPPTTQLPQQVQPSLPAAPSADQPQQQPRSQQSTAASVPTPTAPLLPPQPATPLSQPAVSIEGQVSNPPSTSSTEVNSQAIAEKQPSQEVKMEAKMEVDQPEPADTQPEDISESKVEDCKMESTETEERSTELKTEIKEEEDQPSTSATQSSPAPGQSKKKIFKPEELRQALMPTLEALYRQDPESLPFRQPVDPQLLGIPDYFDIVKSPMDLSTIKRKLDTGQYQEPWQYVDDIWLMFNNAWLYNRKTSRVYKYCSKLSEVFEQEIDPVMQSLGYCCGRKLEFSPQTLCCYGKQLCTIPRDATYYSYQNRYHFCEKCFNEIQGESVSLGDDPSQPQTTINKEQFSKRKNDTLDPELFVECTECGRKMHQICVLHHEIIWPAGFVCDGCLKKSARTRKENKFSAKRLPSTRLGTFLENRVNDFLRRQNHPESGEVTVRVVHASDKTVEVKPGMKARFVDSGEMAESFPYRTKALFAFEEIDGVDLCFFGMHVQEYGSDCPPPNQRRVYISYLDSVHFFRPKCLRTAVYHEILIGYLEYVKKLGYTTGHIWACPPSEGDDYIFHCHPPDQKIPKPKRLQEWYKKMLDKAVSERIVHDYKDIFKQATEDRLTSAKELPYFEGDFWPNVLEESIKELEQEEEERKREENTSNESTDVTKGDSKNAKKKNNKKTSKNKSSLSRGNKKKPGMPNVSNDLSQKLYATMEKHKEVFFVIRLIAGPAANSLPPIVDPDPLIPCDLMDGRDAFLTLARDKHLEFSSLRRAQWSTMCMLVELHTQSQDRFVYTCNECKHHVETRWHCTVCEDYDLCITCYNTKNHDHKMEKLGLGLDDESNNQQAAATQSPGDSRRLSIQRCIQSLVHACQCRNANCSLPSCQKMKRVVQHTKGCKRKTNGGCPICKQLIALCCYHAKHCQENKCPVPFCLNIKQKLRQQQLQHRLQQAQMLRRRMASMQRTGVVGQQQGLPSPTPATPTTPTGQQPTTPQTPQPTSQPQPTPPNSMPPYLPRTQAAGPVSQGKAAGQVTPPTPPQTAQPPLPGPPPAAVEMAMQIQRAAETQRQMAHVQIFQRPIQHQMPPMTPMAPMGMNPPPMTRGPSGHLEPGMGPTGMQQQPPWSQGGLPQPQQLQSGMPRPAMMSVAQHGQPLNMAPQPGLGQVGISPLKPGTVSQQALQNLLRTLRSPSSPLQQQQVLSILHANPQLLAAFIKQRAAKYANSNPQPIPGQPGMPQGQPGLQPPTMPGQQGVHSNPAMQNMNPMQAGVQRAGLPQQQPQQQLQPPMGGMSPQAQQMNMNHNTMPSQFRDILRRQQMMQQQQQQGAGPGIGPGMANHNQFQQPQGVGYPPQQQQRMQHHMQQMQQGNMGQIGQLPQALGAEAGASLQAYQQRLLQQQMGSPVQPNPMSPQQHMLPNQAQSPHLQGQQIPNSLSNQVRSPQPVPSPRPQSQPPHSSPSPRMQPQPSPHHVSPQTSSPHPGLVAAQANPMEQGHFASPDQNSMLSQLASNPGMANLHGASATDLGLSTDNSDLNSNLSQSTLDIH
T3 sequence (P06241 2-537): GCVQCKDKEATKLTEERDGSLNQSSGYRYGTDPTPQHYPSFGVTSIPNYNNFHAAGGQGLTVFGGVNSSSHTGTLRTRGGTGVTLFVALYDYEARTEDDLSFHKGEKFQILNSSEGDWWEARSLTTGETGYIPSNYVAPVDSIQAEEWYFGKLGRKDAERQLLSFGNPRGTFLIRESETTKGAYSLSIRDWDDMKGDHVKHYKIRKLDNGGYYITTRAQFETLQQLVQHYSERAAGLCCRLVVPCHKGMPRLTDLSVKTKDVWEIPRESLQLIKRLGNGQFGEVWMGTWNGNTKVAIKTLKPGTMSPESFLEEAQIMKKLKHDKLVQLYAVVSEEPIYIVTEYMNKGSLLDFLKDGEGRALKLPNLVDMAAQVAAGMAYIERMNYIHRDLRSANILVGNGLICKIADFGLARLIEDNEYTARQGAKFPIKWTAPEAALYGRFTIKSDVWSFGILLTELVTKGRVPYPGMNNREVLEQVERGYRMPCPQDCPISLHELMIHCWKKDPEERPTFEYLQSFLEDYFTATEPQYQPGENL
T2 sequence (P06241 2-537 G2A): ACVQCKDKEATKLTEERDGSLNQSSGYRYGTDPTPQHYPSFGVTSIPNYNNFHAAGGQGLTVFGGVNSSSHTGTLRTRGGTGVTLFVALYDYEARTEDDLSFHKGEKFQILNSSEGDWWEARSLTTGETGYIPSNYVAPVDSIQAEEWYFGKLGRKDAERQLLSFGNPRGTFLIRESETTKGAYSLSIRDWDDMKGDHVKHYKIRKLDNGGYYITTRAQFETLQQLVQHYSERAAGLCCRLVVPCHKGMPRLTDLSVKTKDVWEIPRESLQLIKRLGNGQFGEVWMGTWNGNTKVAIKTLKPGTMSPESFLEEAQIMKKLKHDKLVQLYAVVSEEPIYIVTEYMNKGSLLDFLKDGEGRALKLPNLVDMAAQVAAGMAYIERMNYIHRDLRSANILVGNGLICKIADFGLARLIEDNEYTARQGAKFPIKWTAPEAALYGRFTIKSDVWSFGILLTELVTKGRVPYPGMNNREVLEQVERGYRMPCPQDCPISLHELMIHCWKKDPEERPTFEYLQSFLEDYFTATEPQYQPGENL
T4 sequence (P06241 2-537 C3S/C6S): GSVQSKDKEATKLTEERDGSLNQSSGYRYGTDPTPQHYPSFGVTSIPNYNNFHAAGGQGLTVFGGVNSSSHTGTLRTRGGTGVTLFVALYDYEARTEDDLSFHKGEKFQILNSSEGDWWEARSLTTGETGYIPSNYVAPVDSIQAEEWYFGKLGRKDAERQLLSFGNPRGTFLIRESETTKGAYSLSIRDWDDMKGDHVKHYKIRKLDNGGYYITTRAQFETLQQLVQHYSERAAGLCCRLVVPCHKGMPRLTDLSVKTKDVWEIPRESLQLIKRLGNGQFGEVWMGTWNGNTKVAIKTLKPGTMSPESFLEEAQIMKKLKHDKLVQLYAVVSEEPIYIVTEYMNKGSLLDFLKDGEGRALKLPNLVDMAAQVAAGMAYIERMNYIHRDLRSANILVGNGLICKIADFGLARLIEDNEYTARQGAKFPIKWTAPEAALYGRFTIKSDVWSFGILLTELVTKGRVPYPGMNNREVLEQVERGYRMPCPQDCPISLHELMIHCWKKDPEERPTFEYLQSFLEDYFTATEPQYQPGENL

Structure (SMILES): CCCCCCCCCCCCCCC(Br)C(=O)O (stereo not drawn) [2-BP, 2-bromopalmitate, reference compound]
effect of chemical inhibitor on palmitate turnover on Lck (Lck): decreased Lck depalmitoylation rate | effect of inhibitor on alkynyl-fatty acid protein labeling (alk-12, alk-14, alk-16, 20 μM) (Jurkat cells [1]; Jurkat cells, CHX 10 μM, HMA 1 mM, 2-BP 50 μM, 30 minutes pre-incubation): reduced protein labeling with alk-12, alk-14 and alk-16

Structure (SMILES): C#CCCSCCNC(=O)CCNC(=O)[C@H](O)C(C)(C)COP(=O)(O)OP(=O)(O)OC[C@H]1O[C@@H](n2cnc3c(N)ncnc32)[C@H](O)[C@@H]1OP(=O)(O)O [Analog 1, 3-butynyl-CoA]
utilization as acyl-CoA donor for p300-catalyzed acylation of histone H3 peptide (p300): does not appear to be utilized efficiently by p300 | utilization as acyl-CoA donor for p300-catalyzed acylation of histone H3 peptide (p300; listed as 3-butynyl-CoA): not efficiently utilized by p300 in vitro

Structure (SMILES): C#CCC(=O)[O-].[Na+] [Analog 4, sodium 3-butynoate]
labeling of known lysine-acetylated proteins (enriched core histones, immunoprecipitated histone H3) (Jurkat T cells [2]): specifically labeled

Structure (SMILES): C#CCCC(=O)[O-].[Na+] [Analog 5, sodium 4-pentynoate]
labeling of known lysine-acetylated proteins (enriched core histones, immunoprecipitated histone H3) (Jurkat T cells [2]): specifically labeled | sites of metabolic incorporation (MS/MS of enriched peptides) (Jurkat T cells [3]; Jurkat T cell lysates): metabolically incorporated into known sites of lysine acetylation on histone H2B, H3 and H4 | labeled proteins also identified by anti-acetyl-Lys proteomic studies (Jurkat T cells [3]; Jurkat T cells): 86% | number of labeled proteins identified (Jurkat T cells [3]; Jurkat T cells, three independent experiments): approximately 194 | qualitative comparison among alkynyl-acetate analogs as chemical reporter for protein acetylation (Jurkat T cells [3]): optimal chemical reporter for detecting protein acetylation

Structure (SMILES): C#CCCCC(=O)[O-].[Na+] [Analog 6, sodium 5-hexynoate]
labeling of known lysine-acetylated proteins (enriched core histones, immunoprecipitated histone H3) (Jurkat T cells [2]): specifically labeled | qualitative comparison among alkynyl-acetate analogs as chemical reporter for protein acetylation (Jurkat T cells [3]): may also target cellular fatty-acylated proteins

Structure (SMILES): O=S(=O)(F)Cc1ccccc1 [PMSF, phenylmethylsulfonyl fluoride, reference compound]
effect of chemical inhibitor on palmitate turnover on Lck (Lck): no apparent effect on the initial rate of palmitate removal

Structure (SMILES): C#CCC(=O)O [alk-2, buta-3-ynoic acid]
labeling of acetylated proteins [4]: found to label acetylated proteins such as histones | labeling of proteins in bacterial cells (M. smegmatis): labeled distinct proteins

Structure (SMILES): C#CCCCC(=O)O [alk-4, hexa-5-ynoic acid]
labeling of acetylated proteins [4]: found to label acetylated proteins such as histones | relative efficiency of labeling acetylated proteins among alk-2, alk-3, alk-4 [4]: most efficient labeling of acetylated proteins; also recorded: more efficient | labeling of proteins in bacterial cells (M. smegmatis): labeled distinct proteins

Structure (SMILES): C#CCCCCCCCCCCCC(=O)O [alk-12, Tetradec-13-ynoic acid]
profile of acylated proteins after in vivo labeling [5]: discrete profile of acylated proteins from splenocytes similar to ex vivo labeling | class of acylated proteins targeted by the reporter (Jurkat cells [1]): cotranslationally targets N-myristoylated proteins | labeling of N-myristoylation G2A-mutant Fyn (Fyn [6]): significantly reduced | fatty-acylation of wild-type Fyn (Fyn [7]): readily detected | labeling of dual S-palmitoylation-deficient C3,6S mutant Fyn (Fyn [8]): efficiently labeled | labeling of proteins in bacterial cells (M. smegmatis): labeled distinct proteins | effect of in-gel NH2OH treatment on fluorescent signal of reporter-labeled protein (Lck and LAT): did not alter

Structure (SMILES): C#CCCCCCCCCCCCCCC(=O)O [alk-14, Hexadec-15-ynoic acid]
class of acylated proteins targeted by the reporter (Jurkat cells [1]): appears to represent a combination of alk-12 and alk-16 labeling

Structure (SMILES): C#CCCCCCCCCCCCCCCCC(=O)O [alk-16, Octadec-17-ynoic acid]
decay of reporter signal on Lck with excess myristate as the chase additive (Lck): No significant decay | profile of acylated proteins after in vivo labeling [5]: did not reveal discrete profiles of acylated proteins in splenocytes or liver | class of acylated proteins targeted by the reporter (Jurkat cells [1]): preferentially labels S-acylated proteins | labeling of N-myristoylation G2A-mutant Fyn (Fyn [6]): undetectable | fatty-acylation of wild-type Fyn (Fyn [7]): readily detected | labeling of proteins in bacterial cells (M. smegmatis): labeled distinct proteins | effect of in-gel NH2OH treatment on fluorescent signal of reporter-labeled protein (Lck and LAT): reduced the fluorescent signal

absorption (abs) maxima [9]: 580 nm | emission (em) maxima [9]: 640 nm | εmax^b (M^−1cm^−1) [9]: 33,933 M^−1cm^−1 | ΦF^c [9]: 0.0147 | λmax^a (nm) (first column) [9]: 580 nm | λmax^a (nm) (second column) [9]: 640 nm
Structure (SMILES): C#CCCNc1ccc(/C=C/C2=C(C#N)C(=C(C#N)C#N)OC2(C)C)cc1 [alk-CyFur, (E)-2-(4-(4-(but-3-ynylamino)styryl)-3-cyano-5,5-dimethylfuran-2(5H)-ylidene)malononitrile]

Structure (SMILES): [N-]=[N+]=NCCCCCCCCCCCC(=O)O [az-12, 12-azido-dodecanoic acid]
decay of reporter signal on Lck with excess myristate as the chase additive (Lck): No significant decay | proteins recovered from labeled cell lysates compared to control (-) (Jurkat T cell lysates): significantly greater amounts of proteins recovered

Structure (SMILES): [N-]=[N+]=NCCCCCCCCCCCCCCC(=O)O [az-15, 15-azido-pentadecanoic acid]
proteins recovered from labeled cell lysates compared to control (-) (Jurkat T cell lysates): significantly greater amounts of proteins recovered

absorption (abs) maxima [9]: 470 nm | emission (em) maxima [9]: 580 nm | εmax^b (M^−1cm^−1) [9]: 20,533 M^−1cm^−1 | ΦF^c [9]: 0.0067 | λmax^a (nm) (first column) [9]: 470 nm | λmax^a (nm) (second column) [9]: 580 nm
Structure (SMILES): CC1(C)OC(=C(C#N)C#N)C(C#N)=C1/C=C/c1ccc(NC(=O)OCCN=[N+]=[N-])cc1 [az-CyFur-1]

Structure (SMILES): CCCC(=O)O [butyric acid]
effect on labeling of acetylated proteins with alk-4 [10]: inhibited

Structure (SMILES): CCCCCCCCCCCCCC(=O)O [myristic acid]
competition of alkynyl-fatty acid protein labeling (alk-12, alk-14, alk-16, 10 μM) (Jurkat cells [11]): alk-12 protein labeling is selectively blocked

Structure (SMILES): CCCCCCCCCCCCCCCC(=O)O [palmitic acid]
competition of alkynyl-fatty acid protein labeling (alk-12, alk-14, alk-16, 10 μM) (Jurkat cells [11]): alk-14 and alk-16 protein labeling is most effectively reduced
